The source of these data is patent US6747050B1, “Isoxazoline derivative and a process for the preparation thereof” (LG Chem Investment Ltd., priority 1999, dated 2004).

The test system of data set [1] is W138 cells (human embryonal lung fibroblast). Put plainly: Protection from IFNγ and anti-Fas antibody-induced apoptosis (XTT). It is filed as cell-based. To be noted: IFNγ 200 units/ml + anti-Fas antibody 40 ng/well; for cell viability (control without Fas antibody = 100%): 50 μM, 50 µM; for viability at 0.4 µM / viability at 2 µM / viability at 10 µM / viability at 50 µM: Homo sapiens, read-out: cell viability (control without Fas antibody = 100%); for viability at 0.4 µM: W138, 0.4 μM; for viability at 2 µM: W138, 2 μM; for viability at 10 µM: W138, 10 μM; for viability at 50 µM: W138, 50 μM. As for the experimental part:
W138 cells (human embryonal lung fibroblast) were grown in a medium containing DMEM-10% FBS within, 10 cm diameter dishes until reaching at confluency. The cells were seeded into a 24-well plate at day 1 and incubated overnight while the volume of medium was maintained to 400 μl. Cells were treated with 200 units/ml of IFNγ at day 2 and incubated over 12 hrs or more. At day 3, each 100 μl of test compound was added to the cells after diluting the 10 mM stock compound in DMSO to final concentrations of 50, 10, 2, and 0.4 μM, respectively. The cells were incubated for 2 hrs in order for allowing the compound to enter into the cells and then treated with 40 ng/well of anti-Fas antibody(apoptosis was induced 2 hrs after antibody was treated and the incubation was continued overnight). The control was not treated with Fas antibody. […] After coloring, 100-200 μl of the supernatant was transferred to a 96-well plate and the absorbance at 490 nm was read with ELISA plate reader. For the blank, XTT solution was added to the well continued the medium only. Plotting was determined by comparing with the control group (100% when Fas antibody was not treated).
On the technique in general: Formazan colour is commonly taken as a measure of viable cells.

The target of another data set is T1, caspase-1 (Homo sapiens, UniProt P29466).
T1 construct: made in house; host or cells: transformed bacterium (pET vector)
T1 sequence (P29466 120-297 limits assumed): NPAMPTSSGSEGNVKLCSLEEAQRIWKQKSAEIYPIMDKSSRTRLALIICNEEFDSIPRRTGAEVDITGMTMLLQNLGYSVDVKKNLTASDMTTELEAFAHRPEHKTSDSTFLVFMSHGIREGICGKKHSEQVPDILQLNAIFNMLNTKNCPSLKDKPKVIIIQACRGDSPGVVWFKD
T1 sequence (P29466 317-404 limits assumed): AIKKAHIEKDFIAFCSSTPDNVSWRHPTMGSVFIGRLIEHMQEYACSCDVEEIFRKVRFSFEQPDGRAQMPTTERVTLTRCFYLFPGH
Briefly: Recombinant caspase enzyme inhibition, fluorogenic substrate Ac-YVAD-AMC. It is filed as biochemical. The following applies: Reversible Inhibitor. As to the method: In the present experiment recombinant caspases were purified from a transformed bacterium after human caspase genes were cloned into the expression vector pET, and then used in the experiment (Thornberry, N. A. et al. Nature, 1992, 356, 768. Thornberry, N. A. Methods in Enzymology, 1994, 615.).
Enzymatic activity was measured by a known procedure (Walker N. P. C. et al., Cell 1994, 78, 343). Briefly, 10 ng of recombinant protein was mixed with 50 mM Tris(pH 7.0), 1 mM DTT, 0.5 mM EDTA, 10% Glycerol buffer containing 1˜100 μM of enzyme substrate, Ac-YVAD-AMC or Ac-DEVD-AMC and then the changes by isolated AMC at 37° C. were recorded. The inhibitory activity for caspases was calculated from the early enzyme reaction rate by measuring the changes with fluorescence excited at […] and emitted at 460 nm (Range; Ki<100 nM).

The subject of data set [2] is caspase-3-like activity (Ac-DEVD-pNA). Put plainly: Caspase-3-like activity in TNFα/ActD-treated primary rat hepatocytes. It counts as cell-based. The following applies: 100 μM, 8 hrs. As to the method:
Primary rat hepatocytes were isolated and purified from male Sprague-Dawley rats using a collagenase digestion method. The hepatocytes were purified over 30% Percoll gradient by centrifugation at 1,000×g for 10 min. at 4° C. […] The cells were plated on collagen-coated tissue culture plates at a density of 2×10^5 cells/well in 12-well plates for cell viability analysis or 5×10^6 cells/100 mm dish for enzyme assays. After 18 hrs preculture, the cells were treated with 2,000 units/ml TNFα and 0.2 μg/ml Actinomycin (ActD). Caspase activity and cell viability was determined by colorimetry using a caspase substrate Ac-DEVD-pNA and crystal violet staining method at 8 hrs and 12 hrs, respectively.

The term viability denotes a read-out of living cells in per cent, often relative to untreated cells. For the molecule `CC(=O)[C@H](CC(=O)O)NC(=O)C1(COc2ccccc2)CC([C@@H](NC(=O)c2ccc3ccccc3n2)C(C)C)=NO1` (mixture of isomers) [Compound 22, (3S)-3-{3-[(1S)-1-(Quinoline-2-yl-carbonylamino)-2-methyl-propyl]-5-phenoxymethyl-4,5-dihydro-isoxazole-5-carbonylamino}-4-keto-pentanoic Acid], in data set [1], the “cell viability (control without Fas antibody = 100%)” value came out at 78.29%, the viability at 0.4 µM came to 14.4%, the viability at 2 µM amounted to 18.3% and the viability at 10 µM is 35.4%. In data set [1], the viability at 50 µM came out at 78%.

A word on the Ki: it is the dissociation constant of the complex between target and ligand, obtained from inhibition or displacement. For the molecule `CC1(C(=O)N[C@@H](CC(=O)O)C(=O)COc2ccccc2)CC([C@H](CCC(=O)O)NC(=O)CCC(=O)O)=NO1` (mixture of isomers) [Compound 46, (3S)-3-{3-[(1S)-1-(Succinoylamino)-3-carboxy-propyl]-5-methyl-4,5-dihydro-isoxazole-5-carbonylamino}-4-keto-5-phenoxy-pentanoic Acid], the Ki at caspase-1 is 29.1 nM.

As for `CC(C)[C@H](NC(=O)CCC(=O)O)C1=NOC(C)(C(=O)N[C@@H](CC(=O)O)C(=O)COc2ccccc2)C1` (mixture of isomers) [Compound 47, (3S)-3-{3-[2-Methyl-(1S)-1-(succinoylamino)-propyl]-5-methyl-4,5-dihydro-isoxazole-5-carbonylamino}-4-keto-5-phenoxy-pentanoic Acid], the Ki on caspase-1 was 177 nM.

On to `CCCC1(C(=O)N[C@@H](CC(=O)O)C(=O)COc2ccccc2)CC([C@@H](NC(=O)CCC(=O)O)C(C)C)=NO1` (mixture of isomers) [Compound 83, (3S)-3-{3-[2-Methyl-(1S)-1-(succinoylamino)-propyl]-5-propyl-4,5-dihydro-isoxazole-5-carbonylamino}-4-keto-5-phenoxy-pentanoic Acid], for which, at caspase-1, the inhibition constant (Ki) came out at 969 nM.

For the molecule `CC(C)[C@H](NC(=O)CCC(=O)O)C1=NOC(C)(C(=O)N[C@@H](CC(=O)O)C(=O)COc2ccc3ccccc3c2)C1` (single isomer, unassigned) [Compound 81], the Ki on caspase-1 worked out at 26900 nM.

For `CC(C)[C@H](NC(=O)CCC(=O)O)C1=NOC(C)(C(=O)N[C@@H](CC(=O)O)C(=O)COc2ccc3ccccc3c2)C1` (single isomer, unassigned) [Compound 82], at caspase-1, the Ki amounted to 530 nM.

For the molecule `CC(=O)N[C@@H](CC(=O)O)C(=O)N[C@@H](CCC(=O)O)C(=O)N[C@H](C(=O)N[C@H](C=O)CC(=O)O)C(C)C` [Ac-DEVD-CHO], the “caspase-3-like activity increased by TNFα/ActD (FIG. 15A)” value in data set [2] is listed as “not different”.

For `CC(C)[C@H](NC(=O)c1ccc2ccccc2c1)C1=NOC(Cc2ccccc2)(C(=O)N[C@@H](CC(=O)O)C(=O)COC(=O)c2c(Cl)cccc2Cl)C1` (stereo partly drawn) [Compound 28, (3S)-3-{3-[(1S)-1-(Naphthalene-2-carbonylamino)-2-methyl-propyl]-5-phenylmethyl-4,5-dihydro-isoxazole-5-carbonylamino}-4-keto-5-(2,6-dichlorobenzoyloxy)-pentanoic Acid], in data set [1], the “cell viability (control without Fas antibody = 100%)” value is reported as 90.39%, the viability at 0.4 µM is 14.7%, the viability at 2 µM turned out to be 17.3% and the viability at 10 µM stood at 82.4%. The viability at 50 µM in data set [1] amounted to 90%.

For the molecule `CC(C)[C@H](NC(=O)c1ccc2ccccc2c1)C1=NOC(C(=O)N[C@@H](CC(=O)O)C(=O)COc2ccc3ccccc3c2)C1` (stereo partly drawn) [Compound 29, (3S)-3-{3-[(1S)-1-(Naphthalene-2-carbonylamino)-2-methyl-propyl]-4,5-dihydro-isoxazole-5-carbonylamino}-4-keto-5-(2-naphthyloxy)-pentanoic Acid], the inhibition constant (Ki) on caspase-1 was found to be 0.324 nM.

Turning to `CC(C)[C@H](NC(=O)c1ccc2ccccc2c1)C1=NOC(C(=O)N[C@@H](CC(=O)O)C(=O)COc2ccccc2)C1` (stereo partly drawn) [Compound 30, (3S)-3-{3-[2-Methyl-(1S)-1-(2-naphthalenecarbonylamino)-propyl]-4,5-dihydro-isoxazole-5-carbonylamino}-4-keto-5-phenoxy-pentanoic Acid], the Ki on caspase-1 stood at 19.1 nM.

Regarding `CC(C)[C@H](NC(=O)c1cccc2ccccc12)C1=NOC(Cc2ccccc2)(C(=O)N[C@@H](CC(=O)O)C(=O)CN2CCCCC2)C1` (stereo partly drawn) [Compound 48, (3S)-3-{3-[2-Methyl-(1S)-1-(1-naphtalenycarbonylamino)-propyl]-5-phenylmethyl-4,5-dihydro-isoxazole-5-carbonylamino}-4-keto-5-(1-piperidinyl)-pentanoic Acid], the inhibitory constant (Ki) at caspase-1 worked out at 1.51 nM.

For `CC(C)[C@H](NC(=O)CCC(=O)O)C1=NOC(C)(C(=O)N[C@@H](CC(=O)O)C(=O)CN2CCCC2)C1` (stereo partly drawn) [Compound 78, (3S)-3-{3-[2-methyl-(1S)-1-(succinoylamino)-propyl]-5-methyl-4,5-dihydro-isoxazole-5-cabonylamino}-4-keto-5-(N-pyrrolidine)-pentanoic acid], the Ki on caspase-1 is 63900 nM.
